Data as given in PMC546277 (Arthritis Research & Therapy, 2004).

Target: IGFBP-3 (recombinant human IGF-binding protein 3, rhIGFBP-3) (Homo sapiens, UniProt P17936)
Sequence (P17936 28-291): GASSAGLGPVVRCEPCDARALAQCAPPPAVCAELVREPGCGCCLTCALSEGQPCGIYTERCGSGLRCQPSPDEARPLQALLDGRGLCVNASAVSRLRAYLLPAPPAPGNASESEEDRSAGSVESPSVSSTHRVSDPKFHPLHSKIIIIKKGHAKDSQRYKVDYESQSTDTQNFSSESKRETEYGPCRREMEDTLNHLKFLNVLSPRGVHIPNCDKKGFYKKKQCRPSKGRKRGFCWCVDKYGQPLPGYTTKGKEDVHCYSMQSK
Sequence (P05019 49-118 partner): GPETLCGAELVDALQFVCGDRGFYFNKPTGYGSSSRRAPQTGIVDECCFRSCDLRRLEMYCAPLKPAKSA

## O=C(O)c1cc2cc(O)c(O)cc2c(C(=O)c2ccc(O)c(O)c2)n1 [NBI-31772, 1-(3,4-dihydroxybenzoyl)-3-hydroxycarbonyl-6,7-dihydroxyisoquinoline]
  IC50: 2 nM
